IC50 data for 31 compounds are collected here from patent publication US8188102B2, “Amide derivative for inhibiting the growth of cancer cells” (Hanmi Holdings Co., Ltd., priority 2007, dated 2012).

Some results are limits rather than exact numbers.

Experiment [1] deals with A431 skin cancer cell line. Kind of experiment: Cancer cell growth inhibition, A431 (SRB). The following applies: Homo sapiens, A-431, 72 h, read-out: ID50 (nM) A431.
Experiment [2] relates to SK-Br3 breast cancer cell line. Kind of experiment: Cancer cell growth inhibition, SK-Br3 (SRB). The following applies: Homo sapiens, SK-BR-3, 72 h, read-out: ID50 (nM) SK-Br3.

In the case of `C/C=C/C(=O)N1CC[C@H](Oc2cc3c(Nc4ccc(F)c(Cl)c4F)ncnc3cc2OC)C1` [Example 2, (E)-1-((3S)-3-(4-(3-chloro-2,4-difluorophenylamino)-7-methoxyquinazolin-6-yloxy)pyrrolidin-1-yl)but-2-en-1-one], the IC50 in experiment [1] is 85 nM; in experiment [2], 316 nM. In the case of `CC#CC(=O)N1CC[C@H](Oc2cc3c(Nc4ccc(F)c(Cl)c4F)ncnc3cc2OC)C1` [Example 3, 1-((3S)-3-(4-(3-chloro-2,4-difluorophenylamino)-7-methoxyquinazolin-6-yloxy)pyrrolidin-1-yl)but-2-yn-1-one], the IC50 in experiment [1] is 37 nM; in experiment [2] it was 1300 nM. Taken in the same sequence, the figures for `COc1cc2ncnc(Nc3ccc(F)c(Cl)c3F)c2cc1O[C@H]1CCN(C(=O)C#CCCN2CCN(C)CC2)C1` [Example 4, 1-((3S)-3-(4-(3-chloro-2,4-difluorophenylamino)-7-methoxyquinazolin-6-yloxy)pyrrolidin-1-yl)-5-(4-methylpiperazin-1-yl)pent-2-yn-1-one] were 53 nM and 604 nM. For `COc1cc2ncnc(Nc3ccc(F)c(Cl)c3F)c2cc1O[C@H]1CCN(C(=O)C#CCN(C)C)C1` [Example 5, 1-((3S)-3-(4-(3-chloro-2,4-difluorophenylamino)-7-methoxyquinazolin-6-yloxy)pyrrolidin-1-yl)-4-(dimethylamino)but-2-yn-1-one] the same measures were 33 nM and 128 nM. Taken in the same sequence, the figures for `C=CC(=O)N1CC[C@H](Oc2cc3c(Nc4cccc(Cl)c4F)ncnc3cc2OC)C1` [Example 6, 1-((3S)-3-(4-(3-chloro-2-fluorophenylamino)-7-methoxyquinazolin-6-yloxy)pyrrolidin-1-yl)pro-2-pen-1-one] were 531 nM and 1670 nM. Take `C=CC(=O)N1CC[C@H](Oc2cc3c(Nc4ccc(Br)cc4F)ncnc3cc2OC)C1` [Example 9, 1-((3S)-3-(4-(4-bromo-2-fluorophenylamino)-7-methoxyquinazolin-6-yloxy)pyrrolidin-1-yl)pro-2-pen-1-one]: the IC50 in experiment [1] came out at 15 nM; in experiment [2], 58 nM. For the compound `C=CC(=O)N1CC[C@H](Oc2cc3c(Nc4ccc5c(cnn5Cc5cccc(F)c5)c4)ncnc3cc2OC)C1` [Example 12, 1-((3S)-3-(4-(1-(3-fluorobenzyl)-1H-indazol-5-ylamino)-7-methoxyquinazolin-6-yloxy)pyrrolidin-1-yl)pro-2-pen-1-one], the figures for the IC50 in experiment [1] and in experiment [2] were 19 nM and 3 nM, respectively.

Regarding `C=CC(=O)N1CC[C@H](Oc2cc3c(Nc4ccc(F)c(Cl)c4)ncnc3cc2OC)C1` [Example 13, 1-((3S)-3-(4-(3-chloro-4-fluorophenylamino)-7-methoxyquinazolin-6-yloxy)pyrrolidin-1-yl)pro-2-pen-1-one], in experiment [2], the IC50 came to 17 nM.

On to `C=CC(=O)N1CC[C@@H](Oc2cc3c(Nc4ccc(F)c(Cl)c4)ncnc3cc2OC)C1` [Example 14], for which, in experiment [2], the IC50 was 128 nM.

In the case of `C=CC(=O)N1CCCC(Oc2cc3c(Nc4ccc(F)c(Cl)c4F)ncnc3cc2OC)C1` (stereo not drawn) [Example 18, 1-(3-(4-(3-chloro-2,4-difluorophenylamino)-7-methoxyquinazolin-6-yloxy)piperidin-1-yl)pro-2-pen-1-one], the IC50 came out at 6 nM in experiment [1] and 19 nM in experiment [2]. As to `C=CC(=O)N1CC[C@@H](Oc2cc3c(Nc4ccc(F)c(Cl)c4F)ncnc3cc2OC)C1` [Example 20], the IC50 was 222 nM in experiment [1] and 57 nM in experiment [2]. For `C=CC(=O)NCCOc1cc2c(Nc3ccc(F)c(Cl)c3F)ncnc2cc1OC` [Example 21, N-(2-(4-(3-chloro-2,4-difluorophenylamino)-7-methoxyquinazolin-6-yloxy)ethyl)acrylamide] the same measures were 699 nM and 210 nM.

Take `C=CC(=O)N1CC(Oc2cc3c(Nc4cccc(C#N)c4)ncnc3cc2OC)C1` [Example 27, 3-(6-(1-acryloylazetidin-3-yloxy)-7-methoxyquinazolin-4-ylamino)benzonitrile]: the figures for the IC50 in experiment [1] and in experiment [2] were 17 nM and 3 nM, respectively. Consider `CNC(=O)/C=C/C(=O)N1CC(Oc2cc3c(Nc4ccc(F)c(Cl)c4F)ncnc3cc2OC)C1` [Example 28, (E)-4-(3-(4-(3-chloro-2,4-difluorophenylamino)-7-methoxyquinazolin-6-yloxy)azetidin-1-yl)-N-methyl-4-oxobut-2-ene amide], for which the IC50 in experiment [1] was found to be 41 nM; in experiment [2] it was 262 nM. Consider `C=C(C)C(=O)N1CC(Oc2cc3c(Nc4ccc(F)c(Cl)c4F)ncnc3cc2OC)C1` [Example 29, 1-(3-(4-(3-chloro-2,4-difluorophenylamino)-7-methoxyquinazolin-6-yloxy)azetidin-1-yl)-2-methylpro-2-pen-1-one], for which the figures for the IC50 in experiment [1] and in experiment [2] were 29 nM and 19 nM, respectively. `COC(=O)/C=C\C(=O)N1CC(Oc2cc3c(Nc4cccc(Cl)c4F)ncnc3cc2OC)C1` [Example 30, (Z)-methyl 4-(3-(4-(3-chloro-2-fluorophenylamino)-7-methoxyquinazolin-6-yloxy)azetidin-1-yl)-4-oxobut-2-enoate]: the IC50 came to 1 nM in experiment [1] and 0.6 nM in experiment [2]. `COc1cc2ncnc(Nc3ccc(F)c(Cl)c3F)c2cc1OC1CN(C(=O)/C=C/Cl)C1` [Example 33, (E)-3-chloro-1-(3-(4-(3-chloro-2,4-difluorophenylamino)-7-methoxyquinazolin-6-yloxy)azetidin-1-yl)pro-2-pen-1-one]: the IC50 in experiment [1] came to 44 nM; in experiment [2], 35 nM. Taken in the same sequence, the figures for `C=CC(=O)N1CCC(Oc2cc3c(N[C@H](C)c4ccccc4)ncnc3cc2OC)CC1` [Example 35, (R)-1-(4-(7-methoxy-4-(1-phenylethylamino)quinazolin-6-yloxy)piperidin-1-yl)pro-2-pen-1-one] were 514 nM and 3 nM. For `C#Cc1cccc(Nc2ncnc3cc(OC)c(OC4CCN(C(=O)C=C)CC4)cc23)c1` [Example 37, 1-(4-(4-(3-ethynylphenylamino)-7-methoxyquinazolin-6-yloxy)piperidin-1-yl)pro-2-pen-1-one] the same measures were 52 nM and 79 nM. Taken in the same sequence, the figures for `C=CC(=O)N1CCC(Oc2cc3c(Nc4cc(OC)c(Cl)cc4OC)ncnc3cc2OC)CC1` [Example 38, 1-(4-(4-(4-chloro-2,5-dimethoxyphenylamino)-7-methoxyquinazolin-6-yloxy)piperidin-1-yl)pro-2-pen-1-one] were above 10000 nM and above 10000 nM. Consider `C=CC(=O)N1CCC(Oc2cc3c(Nc4ccc(C(C)C)cc4)ncnc3cc2OC)CC1` [Example 40, 1-(4-(4-(4-isopropylphenylamino)-7-methoxyquinazolin-6-yloxy)piperidin-1-yl)pro-2-pen-1-one], for which the IC50 in experiment [1] came to 23 nM; in experiment [2], 37 nM. Turning to `C=CC(=O)N1CCC(Oc2cc3c(Nc4ccc(Cl)c(Cl)c4)ncnc3cc2OC)CC1` [Example 44, 1-(4-(4-(3,4-dichlorophenylamino)-7-methoxyquinazolin-6-yloxy)piperidin-1-yl)pro-2-pen-1-one], the IC50 in experiment [2] worked out at 2 nM. For the compound `C=CC(=O)N1CCC(Oc2cc3c(Nc4ccc(F)c(F)c4F)ncnc3cc2OC)CC1` [Example 45, 1-(4-(7-methoxy-4-(2,3,4-trifluorophenylamino)quinazolin-6-yloxy)piperidin-1-yl)pro-2-pen-1-one], the results for the IC50 in experiment [1] and in experiment [2] were 43 nM and 3 nM, respectively. Regarding `C=CC(=O)N1CCC(Oc2cc3c(Nc4ccc(F)c(C)c4)ncnc3cc2OC)CC1` [Example 46, 1-(4-(4-(4-fluoro-3-methylphenylamino)-7-methoxyquinazolin-6-yloxy)piperidin-1-yl)pro-2-pen-1-one], the figures for the IC50 in experiment [1] and in experiment [2] were 8 nM and 2 nM, respectively. For `C=CC(=O)N1CCC(Oc2cc3c(Nc4ccc(C)c(C)c4)ncnc3cc2OC)CC1` [Example 47, 1-(4-(4-(3,4-dimethylphenylamino)-7-methoxyquinazolin-6-yloxy)piperidin-1-yl)pro-2-pen-1-one] the same measures were 19 nM and 10 nM.

In the case of `C=CC(=O)N1CCC(Oc2cc3c(Nc4ccc(Oc5ccccc5)cc4)ncnc3cc2OC)CC1` [Example 48, 1-(4-(7-methoxy-4-(4-phenoxyphenylamino)quinazolin-6-yloxy)piperidin-1-yl)pro-2-pen-1-one], the IC50 in experiment [1] was above 1000 nM; in experiment [2], 8 nM. In the case of `C=CC(=O)N1CCC(Oc2cc3c(Nc4ccc5c(c4)CCC5)ncnc3cc2OC)CC1` [Example 49, 1-(4-(4-(2,3-dihydro-1H-inden-5-ylamino)-7-methoxyquinazolin-6-yloxy)piperidin-1-yl)pro-2-pen-1-one], the IC50 in experiment [1] was 29 nM; in experiment [2], 45 nM.

Regarding `C=CC(=O)N1CCC(Oc2cc3c(Nc4cc(Cl)c(O)c(Cl)c4)ncnc3cc2OC)CC1` [Example 50, 1-(4-(4-(3,5-dichloro-4-hydroxyphenylamino)-7-methoxyquinazolin-6-yloxy)piperidin-1-yl)pro-2-pen-1-one], the values for the IC50 in experiment [1] and in experiment [2] were 179 nM and 91 nM, respectively. For `C=CC(=O)N1CCC(Oc2cc3c(Nc4ccc(Cl)c(O)c4)ncnc3cc2OC)CC1` [Example 51, 1-(4-(4-(4-chloro-3-hydroxyphenylamino)-7-methoxyquinazolin-6-yloxy)piperidin-1-yl)pro-2-pen-1-one], the IC50 in experiment [1] turned out to be 105 nM; in experiment [2], 19 nM. As for `C=CC(=O)N1CCC(Oc2cc3c(Nc4ccc(OCc5ccccn5)c(Cl)c4)ncnc3cc2OC)CC1` [Example 55, 1-(4-(4-(3-chloro-4-(pyridin-2-ylmethoxy)phenylamino)-7-methoxyquinazolin-6-yloxy)piperidin-1-yl)pro-2-pen-1-one], the IC50 in experiment [2] is 2 nM. The same measure, in the same setting: the value for `COc1cc2ncnc(Nc3ccc(F)c(Cl)c3F)c2cc1OC1CCN(C(=O)/C=C/CN(C)C)CC1` [Example 98, (E)-1-(4-(4-(3-chloro-2,4-difluorophenylamino)-7-methoxyquinazolin-6-yloxy)piperidin-1-yl)-4-(dimethylamino)but-2-en-1-one] was 45 nM.
